# According to patent publication US12240862B2, “Inhibitors of peptidylarginine deiminases” (Gilead Sciences, Inc., priority 2020, dated 2025):
# Biological target: T1, human PAD4 (Homo sapiens, UniProt Q9UM07)
# T1 construct: human PAD4 (NM_012387), A2P663, was PCR amplified; His-SUMO (N, cleaved yes); made in house; host or cells: E. coli BL21(DE3)
# Experiment: In vitro PAD4 BAEE biochemical assay
# Conditions: human PAD4, BAEE substrate; 5 nM PAD4, 2 mM calcium chloride, 3 mM BAEE; geometric mean of multiple experiments
# Outline: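 Ammonia release from BAEE deimination monitored by o-phthalaldehyde amine coupling (1 h, 25 °C) after EDTA stop. Final conditions: 5 nM tag-free recombinant human PAD4 (E. coli), 2 mM CaCl2, 3 mM BAEE, pH 7.6 MOPS with DTT; 30 min compound preincubation, then 2 h reaction at 25 °C.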
# T1 sequence (Q9UM07 2-663): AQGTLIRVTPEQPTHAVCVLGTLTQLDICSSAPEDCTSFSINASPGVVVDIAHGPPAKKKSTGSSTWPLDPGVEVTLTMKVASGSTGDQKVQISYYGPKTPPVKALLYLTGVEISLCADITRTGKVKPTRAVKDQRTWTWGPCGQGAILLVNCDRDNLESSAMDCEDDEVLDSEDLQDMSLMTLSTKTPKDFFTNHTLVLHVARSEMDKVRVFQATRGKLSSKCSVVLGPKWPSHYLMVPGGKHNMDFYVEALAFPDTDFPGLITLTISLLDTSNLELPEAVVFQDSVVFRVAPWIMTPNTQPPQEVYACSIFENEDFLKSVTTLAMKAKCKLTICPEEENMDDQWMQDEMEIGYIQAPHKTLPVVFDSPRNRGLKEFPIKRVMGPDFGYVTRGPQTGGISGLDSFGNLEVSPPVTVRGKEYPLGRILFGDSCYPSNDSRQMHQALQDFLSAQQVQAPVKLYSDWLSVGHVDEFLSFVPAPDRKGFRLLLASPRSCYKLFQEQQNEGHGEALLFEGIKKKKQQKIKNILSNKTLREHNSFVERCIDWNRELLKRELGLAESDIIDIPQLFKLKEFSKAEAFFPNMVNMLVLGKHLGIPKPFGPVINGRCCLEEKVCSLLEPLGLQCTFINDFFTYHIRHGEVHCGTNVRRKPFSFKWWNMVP
row,IC50 [nM],SMILES
1,34.8,"COc1cc(C(=O)N2[C@H]3CC[C@@H]2[C@H](N)C3)cc2nc(-c3cc4ccc([C@@H](C)NC(=O)c5cnn(C)c5)nc4n3CC3CC3)c(C)n12 [Example 116, ~{N}-[(1~{R})-1-[2-[7-[(1~{R},2~{R},4~{S})-2-amino-7-azabicyclo[2.2.1]heptane-7-carbonyl]-5-methoxy-3-methylimidazo [1,2-a]pyridin-2-yl]-1-(cyclopropylmethyl)pyrrolo [2,3-b]pyridin-6-yl]ethyl]-1-methylpyrazole-4-carboxamide]"
2,31.6,"COc1cc(C(=O)N2[C@H]3CC[C@@H]2[C@H](N)C3)cc2nc(-c3cc4ccc([C@@H](C)NC(=O)N5CC6CC(C5)O6)nc4n3CC3CC3)c(C)n12 [Example 211, ~{N}-[(1~{R})-1-[2-[7-[(1~{R},2~{R},4~{S})-2-amino-7-azabicyclo[2.2.1]heptane-7-carbonyl]-5-methoxy-3-methylimidazo [1,2-a]pyridin-2-yl]-1-(cyclopropylmethyl)pyrrolo [2,3-b]pyridin-6-yl]ethyl]-6-oxa-3-azabicyclo [3.1.1]heptane-3-carboxamide]"
3,67.3,"COc1cc(C(=O)N2C[C@H](N)[C@@H]3CC[C@H]2C3)cc2nc(-c3cc4ccc([C@@H](C)NC(=O)C56CC(F)(C5)C6)nc4n3CC3CC3)c(C)n12 [Example 189, N—((R)-1-(2-(7-((1S,4R,5R)-4-amino-2-azabicyclo[3.2.1]octane-2-carbonyl)-5-methoxy-3-methylimidazo[1,2-a]pyridin-2-yl)-1-(cyclopropylmethyl)-1H-pyrrolo[2,3-b]pyridin-6-yl)ethyl)-3-fluorobicyclo[1.1.1]pentane-1-carboxamide]"
4,73.8,"COc1cc(C(=O)N2[C@H]3CC[C@@H]2[C@H](N)C3)cc2nc(-c3cc4ccc(C(C)CC(N)=O)nc4n3CC3CC3)c(C)n12 (some centres unmarked) [Example 520, 3-[2-[7-[(1~{R},2~{R}, 4~{S})-2-amino-7-azabicyclo[2.2.1]heptane-7-carbonyl]-5-methoxy-3-methylimidazo[1,2-a]pyridin-2-yl]-1-(cyclopropylmethyl)pyrrolo[2,3-b]pyridin-6-yl]butanamide]"
5,63.5,"CCOC(=O)CCC(=O)N[C@H](C)c1ccc2cc(-c3nc4cc(C(=O)N5[C@H]6CC[C@@H]5[C@H](N)C6)cc(OC)n4c3C)n(CC3CC3)c2n1 [Example 152, ethyl 4-[[(1~{R})-1-[2-[7-[(1~{R},2~{R},4~{S})-2-amino-7-azabicyclo[2.2.1]heptane-7-carbonyl]-5-methoxy-3-methylimidazo [1,2-a]pyridin-2-yl]-1-(cyclopropylmethyl)pyrrolo [2,3-b]pyridin-6-yl]ethyl]amino]-4-oxobutanoate]"
6,6980,"COc1cc(C(=O)N2CCC[C@@H](N)C2)cc2nc(-c3cc4ccc(O[C@@H](C)C(=O)N(C)C)nc4n3CC3CC3)c(C)n12 [Example 617, (2~{S})-2-[2-[7-[(3~{R})-3-aminopiperidine-1-carbonyl]-5-methoxy-3-methylimidazo[1,2-a]pyridin-2-yl]-1-(cyclopropylmethyl)pyrrolo [2,3-b]pyridin-6-yl]oxy-~{N},~{N}-dimethylpropanamide]"
7,88.7,COc1cc(C(=O)N2[C@H]3CC[C@@H]2[C@H](N)C3)cc2nc(-c3cc4ccc([C@@H](C)NC(=O)c5ccccc5)nc4n3CC3CC3)c(C)n12 [Example 176]
8,43.5,"COc1cc(C(=O)N2[C@H]3CC[C@@H]2[C@H](N)C3)cc2nc(-c3cc4ccc([C@@H](C)NC(=O)C5(O)CCC5)nc4n3CC3CC3)c(C)n12 [Example 95, ~{N}-[(1~{R})-1-[2-[7-[(1~ {R},2~{R},4~{S})-2-amino-7-azabicyclo[2.2.1]heptane-7-carbonyl]-5-methoxy-3-methylimidazo[1,2-a]pyridin-2-yl]-1-(cyclopropylmethyl)pyrrolo [2,3-b]pyridin-6-yl]ethyl]-1-hydroxycyclobutane-1-carboxamide]"
9,54.5,"COc1cc(C(=O)N2[C@H]3CC[C@@H]2[C@H](N)C3)cc2nc(-c3cc4ccc([C@@H](C)NC(=O)N5CCOCC5)nc4n3CC3CC3)c(C)n12 [Example 241, ~{N}-[(1~{R})-1-[2-[7-[(1~{R},2~{R},4~{S})-2-amino-7-azabicyclo[2.2.1]heptane-7-carbonyl]-5-methoxy-3-methylimidazo [1,2-a]pyridin-2-yl]-1-(cyclopropylmethyl)pyrrolo [2,3-b]pyridin-6-yl]ethyl] morpholine-4-carboxamide]"
10,345,"COc1cc(C(=O)N2CCC[C@@H](N)C2)cc2nc(-c3cc4ccc(-c5cccnc5-c5ccccc5)nc4n3CC3CC3)c(C)n12 [Example 607, [(3~{R})-3-aminopiperidin-1-yl]-[2-[1-(cyclopropylmethyl)-6-(2-phenylpyridin-3-yl)pyrrolo [2,3-b]pyridin-2-yl]-5-methoxy-3-methylimidazo[1,2-a]pyridin-7-yl]methanone]"
11,73.1,"COc1cc(C(=O)N2[C@H]3CC[C@@H]2[C@H](N)C3)cc2nc(-c3cc4ccc(N5C[C@H](C)OCS5(=O)=O)nc4n3CC3CC3)c(C)n12 [Example 441, [(1~{R},2~{R},4~{S})-2-amino-7-azabicyclo [2.2.1]heptan-7-yl]-[2-[1-(cyclopropylmethyl)-6-[(6~{S})-6-methyl-3,3-dioxo-1,3,4-oxathiazinan-4-yl]pyrrolo[2,3-b]pyridin-2-yl]-5-methoxy-3-methylimidazo[1,2-a]pyridin-7-yl]methanone]"
12,57.9,"COc1cc(C(=O)N2[C@H]3CC[C@@H]2[C@H](N)C3)cc2nc(-c3cc4ccc([C@@H](C)NC(=O)[C@H](C)OC)nc4n3CC3CC3)c(C)n12 [Example 34, (2~{S})-~{N}-[(1~{R})-1-[2-[7-[(1~{R},2~{R}, 4~{S})-2-amino-7-azabicyclo[2.2.1]heptane-7-carbonyl]-5-methoxy-3-methylimidazo [1,2-a]pyridin-2-yl]-1-(cyclopropylmethyl)pyrrolo[2,3-b]pyridin-6-yl]ethyl]-2-methoxypropanamide]"
13,136,"Cc1c(-c2cc3ccc(N(C(F)F)S(C)(=O)=O)nc3n2CC2CC2)nc2cc(C(=O)N3[C@@H]4CC[C@@H](N)[C@H]3CC4)ccn12 [Example 401, ~{N}-[2-[7-[(1~{R},2~{R}, 5~{R})-2-amino-8-azabicyclo[3.2.1]octane-8-carbonyl]-3-methylimidazo [1,2-a]pyridin-2-yl]-1-(cyclopropylmethyl)pyrrolo [2,3-b]pyridin-6-yl]-~{N}-(difluoromethyl) methanesulfonamide]"
14,708,"COc1cc(C(=O)N2[C@H]3CC[C@@H]2[C@H](N)C3)cc2nc(-c3cc4ccc([C@H](NC(=O)C5(C#N)CC5)C(F)(F)F)nc4n3CC3CC3)c(C)n12 [Example 191, ~{N}-[(1~{S})-1-[2-[7-[(1~{R},2~{R},4~{S})-2-amino-7-azabicyclo[2.2.1]heptane-7-carbonyl]-5-methoxy-3-methylimidazo [1,2-a]pyridin-2-yl]-1-(cyclopropylmethyl)pyrrolo [2,3-b]pyridin-6-yl]-2,2,2-trifluoroethyl]-1-cyanocyclopropane-1-carboxamide]"
15,465,"COc1cc(C(=O)N2[C@H]3CC[C@@H]2[C@H](N)C3)cc2nc(-c3cc4ccc(C(C)(O)C(C)C)nc4n3CC3CC3)c(C)n12 (some centres unmarked) [Example 571, [(1~{R},2~{R},4~{S})-2-amino-7-azabicyclo [2.2.1]heptan-7-yl]-[2-[1-(cyclopropylmethyl)-6-(2-hydroxy-3-methylbutan-2-yl)pyrrolo[2,3-b]pyridin-2-yl]-5-methoxy-3-methylimidazo[1,2-a]pyridin-7-yl]methanone]"
16,180,"COc1cc(C(=O)N2[C@H]3CC[C@@H]2[C@H](N)C3)cc2nc(-c3cc4ccc([C@@H](C)Nc5ccc(F)cn5)nc4n3CC3CC3)c(C)n12 [Example 259, ((1R,2R,4S)-2-amino-7-azabicyclo[2.2.1]heptan-7-yl)(2-(1-(cyclopropylmethyl)-6-((R)-1-((5-fluoropyridin-2-yl)amino)ethyl)-1H-pyrrolo[2,3-b]pyridin-2-yl)-5-methoxy-3-methylimidazo[1,2-a]pyridin-7-yl)methanone]"
17,497,"COc1cc(C(=O)N2C[C@H]3C[C@H](O)[C@@H]2[C@@H]3N)cc2nc(-c3cc4ccc([C@@H](C)NC(=O)C(C)(C)C)nc4n3CC3CC3)c(C)n12 [Example 173, N-((R)-1-(2-(7-((1S,4R,6S,7R)-7-amino-6-hydroxy-2-azabicyclo [2.2.1]heptane-2-carbonyl)-5-methoxy-3-methylimidazo [1,2-a]pyridin-2-yl)-1-(cyclopropylmethyl)-1H-pyrrolo[2,3-b]pyridin-6-yl)ethyl)pivalamide]"
18,179,"CCc1ccc2cc(-c3nc4cc(C(=O)N5[C@H]6CC[C@@H]5[C@H](N)C6)cc(OC)n4c3C)n(Cc3cccnc3)c2n1 [Example 513, [(1~{R},2~{R},4~{S})-2-amino-7-azabicyclo [2.2.1]heptan-7-yl]-[2-[6-ethyl-1-(pyridin-3-ylmethyl)pyrrolo [2,3-b]pyridin-2-yl]-5-methoxy-3-methylimidazo[1,2-a]pyridin-7-yl]methanone]"
19,148,"CS(=O)(=O)N(c1ccc2cc(-c3nc4cc(C(=O)N5CCC[C@@H](N)C5)c(F)cn4c3C3CC3)n(CC3CC3)c2n1)C(F)F [Example 392, ~{N}-[2-[7-[(3~{R})-3-aminopiperidine-1-carbonyl]-3-cyclopropyl-6-fluoroimidazo [1,2-a]pyridin-2-yl]-1-(cyclopropylmethyl)pyrrolo [2,3-b]pyridin-6-yl]-~{N}-(difluoromethyl) methanesulfonamide]"
20,226,"COc1cc(C(=O)N2[C@H]3CC[C@@H]2[C@H](N)[C@H](O)C3)cc2nc(-c3cc4ccc([C@@H](C)NC(=O)C(C)(C)C)nc4n3CC3CC3)c(C)n12 [Example 60, ~{N}-[(1~{R})-1-[2-[7-[(1~{R},2~{S},3~{R}, 5~{S})-2-amino-3-hydroxy-8-azabicyclo[3.2.1]octane-8-carbonyl]-5-methoxy-3-methylimidazo [1,2-a]pyridin-2-yl]-1-(cyclopropylmethyl)pyrrolo[2,3-b]pyridin-6-yl]ethyl]-2,2-dimethylpropanamide]"
